Reference: US20210214375A1 (LUNDBECK LA JOLLA RESEARCH CENTER, INC., priority 2017, published 2021)
pIC50: −log10 of the molar value.

Key:
MAGL = molecular target: T1, MAGL (Mus musculus, UniProt O35678); assay: Mouse brain proteomes from inhibitor treated mice (oral gavage, brain proteomes analyzed 4 h after administration); type: in vivo, mouse (C57Bl/6J); settings: brain proteome 4 h after administration, read-out: % Inh 5 mg/kg MGLL (Mouse)
T1 construct: from tissue; host or cells: brain of wild-type C57Bl/6J mice
T1 sequence (O35678 1-303): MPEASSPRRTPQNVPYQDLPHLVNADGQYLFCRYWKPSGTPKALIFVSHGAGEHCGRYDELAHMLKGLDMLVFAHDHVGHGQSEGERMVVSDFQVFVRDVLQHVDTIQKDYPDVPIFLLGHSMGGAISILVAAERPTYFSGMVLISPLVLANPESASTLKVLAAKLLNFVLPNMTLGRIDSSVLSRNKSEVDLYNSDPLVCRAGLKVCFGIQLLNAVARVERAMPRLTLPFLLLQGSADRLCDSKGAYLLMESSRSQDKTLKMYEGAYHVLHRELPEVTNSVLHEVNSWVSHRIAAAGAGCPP
Procedure, shortened: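 Wild-type C57Bl/6J mice dosed orally in polyethylene glycol vehicle; brains removed 4 h post-dose and brain proteomes prepared and analysed for MAGL and serine hydrolase activity by previously established methods.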

MGLL = molecular target: T2, MGLL (Mus musculus, UniProt O35678); assay: In vitro competitive activity-based protein profiling, mouse brain proteome; type: biochemical
T2 construct: Brain; from tissue; host or cells: mouse brain proteome
T2 sequence (O35678 1-303): T1 sequence (O35678 1-303)
Description: [Worded in the source for another species; this species is reported under the same test.] (§1) Proteomes (human prefrontal cortex or cell membrane fractions) (50 μL, 1.0 mg/mL total protein concentration) were preincubated with varying concentrations of inhibitors at 37° C. After 30 min, FP—Rh or HT-01 (1.0 μL, 50 μM in DMSO) was added and the mixture was incubated for another 30 min at room temperature. Reactions were quenched with SDS loading buffer (15 μL-4×) and run on SDS-PAGE.

ABHD6 = molecular target: T3, ABHD6 (Mus musculus, UniProt Q8R2Y0); assay: In vitro competitive activity-based protein profiling, mouse brain proteome, ABHD6; type: biochemical; settings: mouse
T3 construct: Brain; from tissue; host or cells: mouse brain proteome
T3 sequence (Q8R2Y0 1-336): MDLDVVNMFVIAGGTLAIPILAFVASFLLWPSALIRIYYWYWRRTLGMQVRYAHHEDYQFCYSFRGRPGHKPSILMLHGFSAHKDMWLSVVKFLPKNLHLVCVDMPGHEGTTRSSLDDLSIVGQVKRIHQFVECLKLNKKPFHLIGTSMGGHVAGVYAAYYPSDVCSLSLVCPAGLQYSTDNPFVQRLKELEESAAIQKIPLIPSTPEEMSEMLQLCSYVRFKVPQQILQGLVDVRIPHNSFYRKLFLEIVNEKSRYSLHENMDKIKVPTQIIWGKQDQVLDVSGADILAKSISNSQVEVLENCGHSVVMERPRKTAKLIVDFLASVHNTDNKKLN
Description: [Worded in the source for another target; this target is reported under the same test.] as §1

Row | SMILES | inhibition at 5 mg/kg (MAGL) | pIC50 (MGLL) | pIC50 (ABHD6)
1 | CS(=O)(=O)N1CCN(c2cccc(C(F)(F)F)c2CN2CC3(CCN(C(=O)OC(C(F)(F)F)C(F)(F)F)CC3)C2)CC1 [Example 53, 1,1,1,3,3,3-Hexafluoropropan-2-yl 2-(2-(4-(methylsulfonyl)piperazin-1-yl)-6-(trifluoromethyl)benzyl)-2,7-diazaspiro[3.5]nonane-7-carboxylate] | ≥ 75% | > 7.00 | 6.00 to 7.00
2 | CCN1CCN(c2cccc(C(F)(F)F)c2CN2CC3(CCN(C(=O)OC(C(F)(F)F)C(F)(F)F)CC3)C2)CC1 [Example 54, 1,1,1,3,3,3-Hexafluoropropan-2-yl 2-(2-(4-ethylpiperazin-1-yl)-6-(trifluoromethyl)benzyl)-2,7-diazaspiro[3.5]nonane-7-carboxylate] | ≤ 25% | > 7.00 | < 6.00
3 | O=C(OC(C(F)(F)F)C(F)(F)F)N1CCC2(CC1)CN(Cc1c(N3CCN(C4CC4)CC3)cccc1C(F)(F)F)C2 [Example 60, 1,1,1,3,3,3-Hexafluoropropan-2-yl 2-(2-(4-cyclopropylpiperazin-1-yl)-6-(trifluoromethyl)benzyl)-2,7-diazaspiro[3.5]nonane-7-carboxylate] | ≥ 75% | > 7.00 | < 6.00
4 | CS(=O)(=O)N1CCC2(CCN(c3cccc(Cl)c3CN3CC4(CCN(C(=O)OC(C(F)(F)F)C(F)(F)F)CC4)C3)CC2)C1 [Example 61, 1,1,1,3,3,3-Hexafluoropropan-2-yl 2-(2-chloro-6-(2-(methylsulfonyl)-2,8-diazaspiro[4.5]decan-8-yl)benzyl)-2,7-diazaspiro[3.5]nonane-7-carboxylate] | 25 to 75% | > 7.00 | 6.00 to 7.00
5 | CS(=O)(=O)N1CCC2(CCN(c3cccc(C(F)(F)F)c3CN3CC4(CCN(C(=O)OC(C(F)(F)F)C(F)(F)F)CC4)C3)CC2)C1 [Example 62, 1,1,1,3,3,3-Hexafluoropropan-2-yl 2-(2-(2-(methylsulfonyl)-2,8-diazaspiro[4.5]decan-8-yl)-6-(trifluoromethyl)benzyl)-2,7-diazaspiro[3.5]nonane-7-carboxylate] | 25 to 75% | > 7.00 | < 6.00
6 | CN(Cc1ccc(C(F)(F)F)cc1N1CCOCC1)C1(C)CCN(C(=O)OC(C(F)(F)F)C(F)(F)F)CC1 [Example 63, 1,1,1,3,3,3-Hexafluoropropan-2-yl 4-methyl-4-(methyl(2-morpholino-4-(trifluoromethyl)benzyl)amino) piperidine-1-carboxylate] | ≥ 75% | > 7.00 | < 6.00
7 | CS(=O)(=O)N1CCC2(CCN(c3ccccc3CN3CCN(C(=O)OC(C(F)(F)F)C(F)(F)F)CC3)C2)C1 (stereo not drawn) [Example 165, 1,1,1,3,3,3-Hexafluoropropan-2-yl 4-(2-(7-(methylsulfonyl)-2,7-diazaspiro[4.4]nonan-2-yl)benzyl)piperazine-1-carboxylate] | ≥ 75% | > 7.00 | < 6.00

Now from value to compound:

Row | inhibition at 5 mg/kg (MAGL) | pIC50 (MGLL) | pIC50 (ABHD6) | SMILES
8 | ≤ 25% | > 7.00 | 6.00 to 7.00 | CCN1CCN(c2cccc(Cl)c2CN2CC3(CCN(C(=O)OC(C(F)(F)F)C(F)(F)F)CC3)C2)CC1 [Example 50, 1,1,1,3,3,3-Hexafluoropropan-2-yl 2-(2-chloro-6-(4-ethylpiperazin-1-yl)benzyl)-2,7-diazaspiro[3.5]nonane-7-carboxylate]
9 | ≥ 75% | > 7.00 | < 6.00 | O=C(OC(C(F)(F)F)C(F)(F)F)N1CCC2(CC1)CN(Cc1c(N3CCC(F)CC3)cccc1C(F)(F)F)C2 [Example 51, 1,1,1,3,3,3-Hexafluoropropan-2-yl 2-(2-(4-fluoropiperidin-1-yl)-6-(trifluoromethyl)benzyl)-2,7-diazaspiro[3.5]nonane-7-carboxylate]
10 | ≥ 75% | > 7.00 | 6.00 to 7.00 | O=C(OC(C(F)(F)F)C(F)(F)F)N1CCC2(CC1)CN(Cc1c(N3CCC4(CCOCC4)C3)cccc1C(F)(F)F)C2 [Example 52, 1,1,1,3,3,3-Hexafluoropropan-2-yl 2-(2-(8-oxa-2-azaspiro[4.5]decan-2-yl)-6-(trifluoromethyl)benzyl)-2,7-diazaspiro[3.5]nonane-7-carboxylate]
11 | ≥ 75% | > 7.00 | 6.00 to 7.00 | O=C(OC(C(F)(F)F)C(F)(F)F)N1CCC2(CC1)CN(Cc1c(Cl)cccc1N1CC3COCC3C1)C2 (stereo not drawn) [Example 57, 1,1,1,3,3,3-Hexafluoropropan-2-yl 2-(2-chloro-6-(tetrahydro-1H-furo[3,4-c]pyrrol-5(3H)-yl)benzyl)-2,7-diazaspiro[3.5]nonane-7-carboxylate]
12 | ≥ 75% | > 7.00 | 6.00 to 7.00 | O=C(OC(C(F)(F)F)C(F)(F)F)N1CCC2(CC1)CN(Cc1c(Cl)cccc1N1CCN(C3CC3)CC1)C2 [Example 58, 1,1,1,3,3,3-Hexafluoropropan-2-yl 2-(2-chloro-6-(4-cyclopropylpiperazin-1-yl)benzyl)-2,7-diazaspiro[3.5]nonane-7-carboxylate]
13 | ≥ 75% | > 7.00 | 6.00 to 7.00 | CC(=O)N1CCN(c2cccc(C(F)(F)F)c2CN2CC3(CCN(C(=O)OC(C(F)(F)F)C(F)(F)F)CC3)C2)CC1 [Example 59, 1,1,1,3,3,3-Hexafluoropropan-2-yl 2-(2-(4-acetylpiperazin-1-yl)-6-(trifluoromethyl)benzyl)-2,7-diazaspiro[3.5]nonane-7-carboxylate]
14 | ≥ 75% | > 7.00 | > 7.00 | O=C(OC(C(F)(F)F)C(F)(F)F)N1CCC2(CC1)CN(Cc1ccc(C(F)(F)F)cc1)C2 [Example 69, 1,1,1,3,3,3-Hexafluoropropan-2-yl 2-(4-(trifluoromethyl)benzyl)-2,7-diazaspiro[3.5]nonane-7-carboxylate]
15 | ≥ 75% | > 7.00 | < 6.00 | CN(Cc1ccc(C(F)(F)F)cc1N1CCCC1)C1(C)CCN(C(=O)OC(C(F)(F)F)C(F)(F)F)CC1 [Example 72, 1,1,1,3,3,3-Hexafluoropropan-2-yl 4-methyl-4-(methyl(2-(pyrrolidin-1-yl)-4-(trifluoromethyl)benzyl)amino) piperidine-1-carboxylate]
16 | ≥ 75% | > 7.00 | 6.00 to 7.00 | O=C(OC(C(F)(F)F)C(F)(F)F)N1CCC2(CC1)CN(Cc1ccc(C(F)(F)F)cc1N1CCCC1)C2 [Example 151, 1,1,1,3,3,3-Hexafluoropropan-2-yl 2-(2-(pyrrolidin-1-yl)-4-(trifluoromethyl)benzyl)-2,7-diazaspiro[3.5]nonane-7-carboxylate]
17 | ≤ 25% | > 7.00 | < 6.00 | CC(=O)N1CCC2(CCN(c3ccccc3CN3CCN(C(=O)OC(C(F)(F)F)C(F)(F)F)CC3)C2)C1 (stereo not drawn) [Example 166, 1,1,1,3,3,3-Hexafluoropropan-2-yl 4-(2-(7-acetyl-2,7-diazaspiro[4.4]nonan-2-yl)benzyl)piperazine-1-carboxylate]
18 | ≥ 75% | > 7.00 | < 6.00 | CS(=O)(=O)N1CC2(CCN(c3ccccc3CN3CCN(C(=O)OC(C(F)(F)F)C(F)(F)F)CC3)C2)C1 [Example 167, 1,1,1,3,3,3-Hexafluoropropan-2-yl 4-(2-(2-(methylsulfonyl)-2,6-diazaspiro[3.4]octan-6-yl)benzyl)piperazine-1-carboxylate]
